Data taken from the kinase profiling compilation of Christmann-Franck et al. (2016).

How the values were obtained:
Test in all cases: KINOMEscan competition binding
Conditions in all cases: compound 10.0 µM
ACVR1 (human) = ACVR1 (human) (UniProt Q04771)
ACVR2B (human) = ACVR2B (human) (UniProt Q13705)
CASK (human) = CASK (human) (UniProt O14936)
CDK8 (human) = CDK8 (human) (UniProt P49336)
DCLK1 (human) = DCLK1 (human) (UniProt O15075)
DMPK (human) = DMPK (human) (UniProt Q09013)
EPHA4 (human) = EPHA4 (human) (UniProt P54764)
EPHA6 (human) = EPHA6 (human) (UniProt Q9UF33)
FER (human) = FER (human) (UniProt P16591)
FGFR1 (human) = FGFR1 (human) (UniProt P11362)
HIPK2 (human) = HIPK2 (human) (UniProt Q9H2X6)
IGF1R (human) = IGF1R (human) (UniProt P08069)
[1] = biological target: JAK2 JH1 catalytic (human) (UniProt O60674)
[2] = test system: KIT (human), P10721 [D816V]
MAP2K6 (human) = MAP2K6 (human) (UniProt P52564)
MAP3K1 (human) = MAP3K1 (human) (UniProt Q13233)
MAP4K1 (human) = MAP4K1 (human) (UniProt Q92918)
MARK3 (human) = MARK3 (human) (UniProt P27448)
MLTK (human) = MLTK (human) (UniProt Q9NYL2)
MYLK3 (human) = MYLK3 (human) (UniProt Q32MK0)
NEK7 (human) = NEK7 (human) (UniProt Q8TDX7)
PAK4 (human) = PAK4 (human) (UniProt O96013)
PAK6 (human) = PAK6 (human) (UniProt Q9NQU5)
PIK3C2B (human) = PIK3C2B (human) (UniProt O00750)
[3] = test system: PIK3CA (human), P42336 [E545A]
[4] = test system: PIK3CA (human), P42336 [H1047Y]
[5] = test system: PIK3CA (human), P42336 [Q546K]
PIK3CB (human) = PIK3CB (human) (UniProt P42338)
PLK4 (human) = PLK4 (human) (UniProt O00444)
RAF1 (human) = RAF1 (human) (UniProt P04049)
RIOK2 (human) = RIOK2 (human) (UniProt Q9BVS4)
RIPK2 (human) = RIPK2 (human) (UniProt O43353)
RPS6KA4 KD1 (human) = RPS6KA4 KD1 (human) (UniProt O75676)
SIK3 (human) = SIK3 (human) (UniProt Q9Y2K2)
STK17B (human) = STK17B (human) (UniProt O94768)
STK24 (human) = STK24 (human) (UniProt Q9Y6E0)
STK4 (human) = STK4 (human) (UniProt Q13043)
TXK (human) = TXK (human) (UniProt P42681)
TYRO3 (human) = TYRO3 (human) (UniProt Q06418)
YSK4 (human) = YSK4 (human) (UniProt Q56UN5)

Chain of STK17B (human) (O94768 whole entry, looked up): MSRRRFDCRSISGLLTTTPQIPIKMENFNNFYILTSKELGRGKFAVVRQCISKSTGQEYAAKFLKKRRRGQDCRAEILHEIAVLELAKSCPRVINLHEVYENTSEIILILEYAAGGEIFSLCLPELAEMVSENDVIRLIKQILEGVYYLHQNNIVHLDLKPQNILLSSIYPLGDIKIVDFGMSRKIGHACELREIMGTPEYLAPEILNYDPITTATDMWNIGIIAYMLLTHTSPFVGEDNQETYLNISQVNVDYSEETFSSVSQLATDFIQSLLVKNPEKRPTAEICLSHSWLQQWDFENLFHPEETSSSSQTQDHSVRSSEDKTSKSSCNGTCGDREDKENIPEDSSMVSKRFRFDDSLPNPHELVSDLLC
Chain of MLTK (human) (Q9NYL2 whole entry, looked up): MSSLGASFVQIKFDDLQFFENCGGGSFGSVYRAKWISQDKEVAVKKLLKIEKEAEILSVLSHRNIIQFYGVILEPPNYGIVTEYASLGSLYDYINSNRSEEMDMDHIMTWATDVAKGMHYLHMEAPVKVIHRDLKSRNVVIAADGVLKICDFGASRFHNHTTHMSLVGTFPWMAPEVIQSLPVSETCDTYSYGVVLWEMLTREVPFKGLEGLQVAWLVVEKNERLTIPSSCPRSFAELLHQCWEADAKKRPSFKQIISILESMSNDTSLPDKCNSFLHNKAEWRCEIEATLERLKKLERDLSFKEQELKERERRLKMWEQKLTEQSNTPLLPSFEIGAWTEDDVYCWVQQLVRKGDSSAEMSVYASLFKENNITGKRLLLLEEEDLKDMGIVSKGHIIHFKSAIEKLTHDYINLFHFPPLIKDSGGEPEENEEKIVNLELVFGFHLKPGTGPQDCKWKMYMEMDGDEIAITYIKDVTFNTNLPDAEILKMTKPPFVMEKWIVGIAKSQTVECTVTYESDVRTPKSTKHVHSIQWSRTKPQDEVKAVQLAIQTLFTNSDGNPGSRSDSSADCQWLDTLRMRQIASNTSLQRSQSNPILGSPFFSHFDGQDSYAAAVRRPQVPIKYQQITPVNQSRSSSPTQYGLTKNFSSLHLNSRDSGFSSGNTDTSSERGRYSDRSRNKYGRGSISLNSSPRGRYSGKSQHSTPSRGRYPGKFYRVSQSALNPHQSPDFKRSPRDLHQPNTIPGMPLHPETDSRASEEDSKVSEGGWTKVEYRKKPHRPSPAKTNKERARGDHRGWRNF
Chain of RAF1 (human) (P04049 whole entry, looked up): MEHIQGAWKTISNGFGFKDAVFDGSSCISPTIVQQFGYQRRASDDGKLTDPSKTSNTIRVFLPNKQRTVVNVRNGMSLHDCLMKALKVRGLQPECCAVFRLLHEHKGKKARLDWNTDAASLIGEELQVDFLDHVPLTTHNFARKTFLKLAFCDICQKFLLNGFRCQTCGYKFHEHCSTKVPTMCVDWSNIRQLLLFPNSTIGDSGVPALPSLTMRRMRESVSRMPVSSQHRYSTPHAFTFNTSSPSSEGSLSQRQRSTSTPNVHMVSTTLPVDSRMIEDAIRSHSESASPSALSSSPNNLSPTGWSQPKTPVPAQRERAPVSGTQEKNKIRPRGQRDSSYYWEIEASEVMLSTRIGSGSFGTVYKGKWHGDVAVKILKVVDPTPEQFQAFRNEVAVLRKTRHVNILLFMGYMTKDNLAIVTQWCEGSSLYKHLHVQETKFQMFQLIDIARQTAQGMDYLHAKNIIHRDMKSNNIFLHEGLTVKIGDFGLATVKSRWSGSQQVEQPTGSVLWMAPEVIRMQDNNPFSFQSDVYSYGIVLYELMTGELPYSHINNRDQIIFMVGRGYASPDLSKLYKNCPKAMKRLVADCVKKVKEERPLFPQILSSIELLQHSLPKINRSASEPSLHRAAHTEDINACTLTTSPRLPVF
Chain of PLK4 (human) (O00444 whole entry, looked up): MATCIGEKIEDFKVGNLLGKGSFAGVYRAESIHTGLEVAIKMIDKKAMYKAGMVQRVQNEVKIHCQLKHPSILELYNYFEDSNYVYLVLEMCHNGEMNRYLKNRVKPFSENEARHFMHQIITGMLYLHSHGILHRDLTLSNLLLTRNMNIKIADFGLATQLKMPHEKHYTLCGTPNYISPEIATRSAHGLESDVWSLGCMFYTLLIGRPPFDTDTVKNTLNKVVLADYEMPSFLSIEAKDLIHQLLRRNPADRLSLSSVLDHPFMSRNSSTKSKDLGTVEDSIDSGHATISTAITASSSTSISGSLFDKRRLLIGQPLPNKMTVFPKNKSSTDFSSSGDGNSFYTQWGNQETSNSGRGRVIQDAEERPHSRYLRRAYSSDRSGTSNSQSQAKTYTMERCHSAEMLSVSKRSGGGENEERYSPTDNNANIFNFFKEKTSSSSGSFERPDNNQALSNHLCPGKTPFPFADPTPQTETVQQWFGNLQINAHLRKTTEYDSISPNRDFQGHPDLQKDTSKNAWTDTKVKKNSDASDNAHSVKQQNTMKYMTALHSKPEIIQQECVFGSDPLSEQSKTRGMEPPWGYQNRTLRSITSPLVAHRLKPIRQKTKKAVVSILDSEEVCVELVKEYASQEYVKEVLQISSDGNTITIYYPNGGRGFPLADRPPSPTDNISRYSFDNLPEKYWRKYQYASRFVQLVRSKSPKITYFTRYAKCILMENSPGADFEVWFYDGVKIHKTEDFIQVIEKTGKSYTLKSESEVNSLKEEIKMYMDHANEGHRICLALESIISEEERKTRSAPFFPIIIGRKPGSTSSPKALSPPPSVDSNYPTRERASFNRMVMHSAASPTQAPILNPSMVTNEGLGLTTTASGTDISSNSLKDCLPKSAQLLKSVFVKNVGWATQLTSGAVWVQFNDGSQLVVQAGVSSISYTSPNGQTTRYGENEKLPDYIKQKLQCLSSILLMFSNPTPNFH
Chain of NEK7 (human) (Q8TDX7 whole entry, looked up): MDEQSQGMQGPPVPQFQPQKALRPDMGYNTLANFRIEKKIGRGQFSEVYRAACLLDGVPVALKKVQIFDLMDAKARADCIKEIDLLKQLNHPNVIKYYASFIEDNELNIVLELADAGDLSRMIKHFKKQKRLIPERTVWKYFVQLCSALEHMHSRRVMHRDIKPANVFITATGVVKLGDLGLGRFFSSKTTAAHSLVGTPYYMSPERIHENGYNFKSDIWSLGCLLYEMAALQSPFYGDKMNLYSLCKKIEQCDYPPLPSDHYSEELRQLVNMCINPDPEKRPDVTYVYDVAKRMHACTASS
Chain of CDK8 (human) (P49336 whole entry, looked up): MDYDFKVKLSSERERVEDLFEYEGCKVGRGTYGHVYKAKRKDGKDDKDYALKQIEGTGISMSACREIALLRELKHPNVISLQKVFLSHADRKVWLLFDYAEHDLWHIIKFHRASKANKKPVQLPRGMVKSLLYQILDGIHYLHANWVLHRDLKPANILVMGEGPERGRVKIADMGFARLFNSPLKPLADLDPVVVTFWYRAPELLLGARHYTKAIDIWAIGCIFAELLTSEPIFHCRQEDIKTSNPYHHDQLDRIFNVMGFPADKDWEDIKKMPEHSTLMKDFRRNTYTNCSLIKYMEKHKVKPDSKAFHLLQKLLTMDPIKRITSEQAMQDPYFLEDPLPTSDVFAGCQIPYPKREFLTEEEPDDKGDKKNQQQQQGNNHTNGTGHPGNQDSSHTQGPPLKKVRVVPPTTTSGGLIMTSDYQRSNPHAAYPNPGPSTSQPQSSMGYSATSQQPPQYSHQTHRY
Chain of STK24 (human) (Q9Y6E0 whole entry, looked up): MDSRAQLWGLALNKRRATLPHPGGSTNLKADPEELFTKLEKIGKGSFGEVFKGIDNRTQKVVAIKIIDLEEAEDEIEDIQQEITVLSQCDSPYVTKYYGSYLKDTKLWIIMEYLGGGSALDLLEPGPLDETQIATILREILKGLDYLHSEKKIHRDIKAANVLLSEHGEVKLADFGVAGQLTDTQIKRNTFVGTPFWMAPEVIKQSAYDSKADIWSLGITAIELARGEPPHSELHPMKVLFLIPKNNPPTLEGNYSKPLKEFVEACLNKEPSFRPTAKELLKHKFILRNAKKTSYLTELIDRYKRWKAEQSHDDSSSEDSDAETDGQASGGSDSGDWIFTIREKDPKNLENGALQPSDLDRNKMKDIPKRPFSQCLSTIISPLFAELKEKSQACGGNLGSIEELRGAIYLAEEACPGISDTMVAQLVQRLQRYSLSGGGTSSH
Chain of EPHA4 (human) (P54764 whole entry, looked up): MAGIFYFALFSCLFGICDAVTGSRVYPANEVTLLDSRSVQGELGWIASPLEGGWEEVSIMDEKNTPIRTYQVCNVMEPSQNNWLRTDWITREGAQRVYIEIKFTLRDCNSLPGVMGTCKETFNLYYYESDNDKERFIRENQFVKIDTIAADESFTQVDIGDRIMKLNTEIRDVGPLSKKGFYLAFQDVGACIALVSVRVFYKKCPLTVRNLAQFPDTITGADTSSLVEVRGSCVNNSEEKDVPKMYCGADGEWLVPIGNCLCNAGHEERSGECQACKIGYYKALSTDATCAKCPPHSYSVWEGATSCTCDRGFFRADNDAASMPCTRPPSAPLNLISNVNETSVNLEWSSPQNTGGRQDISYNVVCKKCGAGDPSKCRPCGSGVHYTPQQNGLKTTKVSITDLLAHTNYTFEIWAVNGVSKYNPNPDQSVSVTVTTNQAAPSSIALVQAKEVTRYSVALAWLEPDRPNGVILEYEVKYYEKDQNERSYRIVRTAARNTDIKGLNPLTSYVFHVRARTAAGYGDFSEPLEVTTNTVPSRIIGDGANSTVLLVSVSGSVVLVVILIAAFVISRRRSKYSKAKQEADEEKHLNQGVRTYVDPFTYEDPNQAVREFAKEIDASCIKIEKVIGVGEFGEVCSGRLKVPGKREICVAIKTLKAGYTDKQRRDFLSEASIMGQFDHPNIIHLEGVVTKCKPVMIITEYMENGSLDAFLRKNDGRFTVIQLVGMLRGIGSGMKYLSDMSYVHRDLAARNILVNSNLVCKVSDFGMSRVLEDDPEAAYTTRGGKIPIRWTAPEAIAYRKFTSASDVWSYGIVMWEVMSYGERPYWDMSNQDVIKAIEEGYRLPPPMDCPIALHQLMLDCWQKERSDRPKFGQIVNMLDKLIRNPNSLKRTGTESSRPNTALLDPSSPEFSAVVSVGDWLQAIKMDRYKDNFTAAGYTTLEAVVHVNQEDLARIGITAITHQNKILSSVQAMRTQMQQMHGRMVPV

Compound | kinase still bound, per cent of control (ACVR1 (human)) [%] | kinase still bound, per cent of control (ACVR2B (human)) [%] | kinase still bound, per cent of control (CASK (human)) [%] | kinase still bound, per cent of control (CDK8 (human)) [%] | kinase still bound, per cent of control (DCLK1 (human)) [%] | kinase still bound, per cent of control (DMPK (human)) [%] | kinase still bound, per cent of control (EPHA4 (human)) [%] | kinase still bound, per cent of control (EPHA6 (human)) [%] | kinase still bound, per cent of control (FER (human)) [%] | kinase still bound, per cent of control (FGFR1 (human)) [%] | kinase still bound, per cent of control (HIPK2 (human)) [%] | kinase still bound, per cent of control (IGF1R (human)) [%] | kinase still bound, per cent of control [1] [%] | kinase still bound, per cent of control [2] [%] | kinase still bound, per cent of control (MAP2K6 (human)) [%] | kinase still bound, per cent of control (MAP3K1 (human)) [%] | kinase still bound, per cent of control (MAP4K1 (human)) [%] | kinase still bound, per cent of control (MARK3 (human)) [%] | kinase still bound, per cent of control (MLTK (human)) [%] | kinase still bound, per cent of control (MYLK3 (human)) [%] | other results
COc1cc(N2CCN(C)CC2)ccc1Nc1nc(N)c(C(=O)c2c(Cl)cccc2Cl)s1 | 100 | 92 | 35 | 100 | 3 | 50 | 90 | 99 | 82 | 94 | 66 | 72 | 80 | 92 | 85 | 100 | 90 | 100 | 100 | 100 | kinase still bound, per cent of control (NEK7 (human)): 100%; kinase still bound, per cent of control (PAK4 (human)): 100%; kinase still bound, per cent of control (PAK6 (human)): 55%; kinase still bound, per cent of control (PIK3C2B (human)): 98%; kinase still bound, per cent of control [3]: 100%; kinase still bound, per cent of control [4]: 100%; kinase still bound, per cent of control [5]: 78%; kinase still bound, per cent of control (PIK3CB (human)): 100%; kinase still bound, per cent of control (PLK4 (human)): 100%; kinase still bound, per cent of control (RAF1 (human)): 100%; kinase still bound, per cent of control (RIOK2 (human)): 100%; kinase still bound, per cent of control (RIPK2 (human)): 70%; kinase still bound, per cent of control (RPS6KA4 KD1 (human)): 100%; kinase still bound, per cent of control (SIK3 (human)): 76%; kinase still bound, per cent of control (STK17B (human)): 73%; kinase still bound, per cent of control (STK24 (human)): 77%; kinase still bound, per cent of control (STK4 (human)): 100%; kinase still bound, per cent of control (TXK (human)): 100%; kinase still bound, per cent of control (TYRO3 (human)): 100%; kinase still bound, per cent of control (YSK4 (human)): 98%
O=C1Nc2ccc(I)cc2/C1=C/c1cc(Br)c(O)c(Br)c1 | 31 | 83 | 74 | 62 | 86 | 100 | 100 | 100 | 100 | 77 | 7.6 | 97 | 57 | 79 | 71 | 84 | 71 | 68 | 84 | 10 | kinase still bound, per cent of control (NEK7 (human)): 100%; kinase still bound, per cent of control (PAK4 (human)): 82%; kinase still bound, per cent of control (PAK6 (human)): 73%; kinase still bound, per cent of control (PIK3C2B (human)): 10%; kinase still bound, per cent of control [3]: 86%; kinase still bound, per cent of control [4]: 76%; kinase still bound, per cent of control [5]: 97%; kinase still bound, per cent of control (PIK3CB (human)): 100%; kinase still bound, per cent of control (PLK4 (human)): 26%; kinase still bound, per cent of control (RAF1 (human)): 0.65%; kinase still bound, per cent of control (RIOK2 (human)): 35%; kinase still bound, per cent of control (RIPK2 (human)): 38%; kinase still bound, per cent of control (RPS6KA4 KD1 (human)): 87%; kinase still bound, per cent of control (SIK3 (human)): 100%; kinase still bound, per cent of control (STK17B (human)): 40%; kinase still bound, per cent of control (STK24 (human)): 97%; kinase still bound, per cent of control (STK4 (human)): 52%; kinase still bound, per cent of control (TXK (human)): 100%; kinase still bound, per cent of control (TYRO3 (human)): 88%; kinase still bound, per cent of control (YSK4 (human)): 0.4%
Nc1ccc(-c2ccc3ncc4ccc(=O)n(-c5cccc(C(F)(F)F)c5)c4c3c2)cn1 | 86 | 97 | 67 | 100 | 97 | 95 | 100 | 100 | 95 | 95 | 53 | 100 | 64 | 61 | 93 | 100 | 100 | 100 | 65 | 100 | kinase still bound, per cent of control (NEK7 (human)): 82%; kinase still bound, per cent of control (PAK4 (human)): 100%; kinase still bound, per cent of control (PAK6 (human)): 100%; kinase still bound, per cent of control (PIK3C2B (human)): 37%; kinase still bound, per cent of control (PIK3CB (human)): 6.6%; kinase still bound, per cent of control (PLK4 (human)): 100%; kinase still bound, per cent of control (RAF1 (human)): 100%; kinase still bound, per cent of control (RIOK2 (human)): 70%; kinase still bound, per cent of control (RIPK2 (human)): 54%; kinase still bound, per cent of control (RPS6KA4 KD1 (human)): 82%; kinase still bound, per cent of control (SIK3 (human)): 79%; kinase still bound, per cent of control (STK17B (human)): 89%; kinase still bound, per cent of control (STK24 (human)): 98%; kinase still bound, per cent of control (STK4 (human)): 100%; kinase still bound, per cent of control (TXK (human)): 100%; kinase still bound, per cent of control (TYRO3 (human)): 100%; kinase still bound, per cent of control (YSK4 (human)): 37%
